# Assay results as given in US7038084B2, “Succinoylamino hydroxyethylamino sulfonamides useful as retroviral protease inhibitors” (G.D. Searle & Co., priority 1992, dated 2006).
# Where two headings read alike, the source gives them in different places.
# Experiments:
# HIV protease = target: T1, HIV protease (Human immunodeficiency virus type 1 group M subtype B, UniProt P04585); assay: HIV protease enzyme assay (fluorogenic substrate 2-aminobenzoyl-Ile-Nle-Phe(p-NO2)-Gln-ArgNH2); format: biochemical
# T1 construct: HIV protease is diluted in the assay buffer to a final enzyme concentration of 12.3 nanomolar, based on a molecular weight of 10,780
# Excerpt: The compounds of the present invention are effective HIV protease inhibitors. Utilizing an enzyme assay as described below, the compounds set forth in the examples herein disclosed inhibited the HIV enzyme. The preferred compounds of the present invention and their calculated IC50 (inhibiting concentration 50%, i.e., the concentration at which the inhibitor compound reduces enzyme activity by 50%) values are shown in Table 8. The enzyme method is described below. The substrate is 2-aminobenzoyl-Ile-Nle-Phe(p-NO2)-Gln-ArgNH2. The positive control is MVT-101 (Miller, M. et al, Science, 246, 1149 (1989)] The assay conditions are as follows:
# The above described substrate is dissolved in DMSO, then diluted 10 fold in assay buffer. Final substrate concentration in the assay is 80 μM.
# HIV protease is diluted in the assay buffer to a final enzyme concentration of 12.3 nanomolar, based on a molecular weight of 10,780.
# The final concentration of DMSO is 14% and the final concentration of glycerol is 18%. The test compound is dissolved in DMSO and diluted in DMSO to 10× the test concentration; 10 μl of the enzyme preparation is added, the materials mixed and then the mixture is incubated at ambient temperature for 15 minutes. The enzyme reaction is initiated by the addition of 40 μl of substrate. The increase in fluorescence is monitored at 4 time points (0, 8, 16 and 24 minutes) at ambient temperature. Each assay is carried out in duplicate wells.
# HIV-1 = assay: HIV inhibition assay of acutely infected CEM cells (MTT); format: cell-based
# Procedure: (§1) The HIV inhibition assay method of acutely infected cells is an automated tetrazolium based calorimetric assay essentially that reported by Pauses et al, J. Virol. Methods 20, 309–321 (1988). Assays were performed in 96-well tissue culture plates. CEM cells, a CD4^+ cell line, were grown in RPMI-1640 medium (Gibco) supplemented with a 10% fetal calf serum and were then treated with polybrene (2 μg/ml). An 80 μl volume of medium containing 1×10^4 cells was dispensed into each well of the tissue culture plate. To each well was added a 100 μl volume of test compound dissolved in tissue culture medium (or medium without test compound as a is control) to achieve the desired final concentration and the cells were incubated at 37° C. for 1 hour. A frozen culture of HIV-1 was diluted in culture medium to a concentration of 5×10^4 TCID50 per ml (TCID50=the dose of virus that infects 50% of cells in tissue culture), and a 20 μL volume of the virus sample (containing 1000 TCID50 of virus) was added to wells containing test compound and to wells containing only medium (infected control cells). Several wells received culture medium without virus (uninfected control cells). Likewise, the intrinsic toxicity of the test compound was determined by adding medium without virus to several wells containing test compound. In summary, the tissue culture plates contained the following experiments:
# (§2) In experiments 2 and 4 the final concentrations of test compounds were 1, 10, 100 and 500 μg/ml. Either azidothymidine (AZT) or dideoxyinosine (ddI) was included as a positive drug control. […] DMSO was added to all control wells at an appropriate concentration.
# (§3) Following the addition of virus, cells were incubated at 37° C. in a humidified, 5% CO2 atmosphere for 7 days. Test compounds could be added on days 0, 2 and 5 if desired. On day 7, post-infection, the cells in each is well were resuspended and a 100 μl sample of each cell suspension was removed for assay. A 20 μL volume of a 5 mg/ml solution of 3-(4,5-dimethylthiazol-2-yl)-2,5-diphenyltetrazolium bromide (MTT) was added to each 100 μL cell suspension, and the cells were incubated for 4 hours at […] in a 5% CO2 environment.
# (§4) To each sample was added 100 μl of 10% sodium dodecylsulfate in 0.01 N HCl to lyse the cells, and samples were incubated overnight. The absorbance at 590 nm was determined for each sample using a Molecular Devices microplate reader. Absorbance values for each set of wells is compared to assess viral control infection, uninfected control cell response as well as test compound by cytotoxicity and antiviral efficacy.
# CEM cells = assay: Intrinsic toxicity of test compound in uninfected CEM cells (MTT); format: cell-based; settings: 7 days
# Procedure: as §1, §2, §3, §4
# [1] = Table 8, 80 μM substrate, 12.3 nanomolar enzyme, pH 6.4, read-out: IC50
# [2] = Human immunodeficiency virus 1, CCRF-CEM, 168 h
molecule,measurement,setting,value
CC(C)CCN(C[C@@H](O)[C@H](Cc1ccccc1)NC(=O)[C@H](C)C(C)(C)C(=O)OCc1ccccc1)S(=O)(=O)c1ccccc1 (relative stereo) [Entry 1],IC50,HIV protease; [1],80 nM
"CC(C)CCN(C[C@@H](O)[C@H](Cc1ccccc1)NC(=O)[C@H](C)C(C)(C)C(=O)O)S(=O)(=O)c1ccccc1 (single isomer, unassigned) [Entry 1]",EC50,HIV-1; [2],15 nM
"CC(C)CCN(C[C@@H](O)[C@H](Cc1ccccc1)NC(=O)[C@H](C)C(C)(C)C(=O)O)S(=O)(=O)c1ccccc1 (single isomer, unassigned) [Entry 2]",IC50,HIV protease; [1],2 nM
"CC(C)CCN(C[C@@H](O)[C@H](Cc1ccccc1)NC(=O)[C@H](C)C(C)(C)C(N)=O)S(=O)(=O)c1ccccc1 (single isomer, unassigned) [Entry 2]",EC50,HIV-1; [2],9 nM
same,TD50,CEM cells; human,"60,000 nm"
"CC(C)CCN(C[C@@H](O)[C@H](Cc1ccccc1)NC(=O)[C@H](C)C(C)(C)C(N)=O)S(=O)(=O)c1ccccc1 (single isomer, unassigned) [Entry 3]",IC50,HIV protease; [1],2 nM
CC(C)CN(C[C@@H](O)[C@H](Cc1ccccc1)NC(=O)[C@H](C)C(C)(C)C(=O)O)S(=O)(=O)c1ccccc1 [Entry 3],IC50,"HIV protease; Table 9, enzyme assay",1 nM
same,EC50,HIV-1; [2],42 nM
same,TD50,CEM cells; human,"220,000 nm"
CC(C)CN(C[C@@H](O)[C@H](Cc1ccccc1)NC(=O)[C@H](C)C(C)(C)C(=O)OCc1ccccc1)S(=O)(=O)c1ccccc1 [Entry 4],IC50,HIV protease; [1],34 nM
CC(C)CN(C[C@@H](O)[C@H](Cc1ccccc1)NC(=O)[C@H](C)C(C)(C)C(N)=O)S(=O)(=O)c1ccccc1 [Entry 4],EC50,HIV-1; [2],5 nM
same,TD50,CEM cells; human,"62,000 nm"
CC(C)CN(C[C@@H](O)[C@H](Cc1ccccc1)NC(=O)[C@H](C)C(C)(C)C(=O)O)S(=O)(=O)c1ccccc1 [Entry 5],IC50,HIV protease; [1],1 nM
COc1ccc(S(=O)(=O)N(CC(C)C)C[C@@H](O)[C@H](Cc2ccccc2)NC(=O)[C@H](C)C(C)(C)C(=O)O)cc1 [Entry 5],EC50,HIV-1; [2],27 nM
same,TD50,CEM cells; human,"200,000 nm"
COc1ccc(S(=O)(=O)N(CC(C)C)C[C@@H](O)[C@H](Cc2ccccc2)NC(=O)[C@H](C)C(C)(C)C(=O)OCc2ccccc2)cc1 [Entry 7],IC50,HIV protease; [1],16 nM
COc1ccc(S(=O)(=O)N(CC(C)C)C[C@@H](O)[C@H](Cc2ccccc2)NC(=O)[C@H](C)C(C)(C)C(=O)O)cc1 [Entry 8],IC50,HIV protease; [1],2 nM
COc1ccc(S(=O)(=O)N(CC(C)C)C[C@@H](O)[C@H](Cc2ccccc2)NC(=O)[C@H](C)C(C)(C)C(N)=O)cc1 [Entry 9],IC50,HIV protease; [1],2 nM
"Butanediamide, N^4-[2-hydroxy-3-[(3-methylbutyl)(phenylsulfonyl)amino]-1-(phenylmethyl)propyl]-2,2,3-Trimethyl-, [1S-[1R*(S*),2S*]]- [Table 8 Entry 3]",IC50,HIV protease; [1],2 nM
same,IC50,"HIV protease; Table 9, enzyme assay, read-out: IC50",2 nM
same,EC50,"HIV-1; Table 9, CEM cells acutely infected with HIV-1, 7 days, read-out: EC50",5 nM
same,TD50,"CEM cells; Table 9, CEM cells without virus","58,000 nm"
